In US20050197350A1, “Novel quinoline, tetrahydroquinazoline, and pyrimidine derivatives and methods of treatment related to the use thereof” (TAISHO PHARMACEUTICAL CO., LTD., priority 2003, published 2005):

Each compound was assayed on MCH receptors (assay: MCH receptor activity class (method not given)). Conditions: class by percent of control at 10^-7 M or IC50.
In the case of `COc1cc(C)c(CNC[C@H]2CC[C@@H](Nc3cc(N(C)C)c4ccccc4n3)CC2)cc1C` [compound 1195], the class is reported as 3 (Class 3 The value of percent of control at 10^−7 M was more than 60% or the value of IC50 was more than 200 nM.).
In the case of `COc1cccc(CNC[C@H]2CC[C@@H](Nc3cc(N(C)C)c4ccccc4n3)CC2)c1O` [compound 1196], the class is reported as 3 (Class 3 The value of percent of control at 10^−7 M was more than 60% or the value of IC50 was more than 200 nM.).
In the case of `CN(C)c1cc(N[C@H]2CC[C@@H](CNCc3cc(C(F)(F)F)cc(Cl)c3F)CC2)nc2ccccc12` [compound 1197], the class is reported as 3 (Class 3 The value of percent of control at 10^−7 M was more than 60% or the value of IC50 was more than 200 nM.).
In the case of `CN(C)c1cc(N[C@H]2CC[C@@H](CNCc3cc(F)cc(C(F)(F)F)c3)CC2)nc2ccccc12` [compound 1198], the class is reported as 3 (Class 3 The value of percent of control at 10^−7 M was more than 60% or the value of IC50 was more than 200 nM.).
`COc1cc(CNC[C@H]2CC[C@@H](Nc3cc(N(C)C)c4ccccc4n3)CC2)cc(F)c1O` [compound 1199] was tested, and the class was 3 (Class 3 The value of percent of control at 10^−7 M was more than 60% or the value of IC50 was more than 200 nM.).
In the case of `COc1cc(F)c(CNC[C@H]2CC[C@@H](Nc3cc(N(C)C)c4ccccc4n3)CC2)cc1OC` [compound 1200], the class is reported as 3 (Class 3 The value of percent of control at 10^−7 M was more than 60% or the value of IC50 was more than 200 nM.).
In the case of `CCc1ccccc1CNC[C@H]1CC[C@@H](Nc2cc(N(C)C)c3ccccc3n2)CC1` [compound 1201], the class is reported as 3 (Class 3 The value of percent of control at 10^−7 M was more than 60% or the value of IC50 was more than 200 nM.).
With `CN(C)c1cc(N[C@H]2CC[C@@H](CNCc3ccc(N(C)CCC#N)cc3)CC2)nc2ccccc12` [compound 1202] the class was 3 (Class 3 The value of percent of control at 10^−7 M was more than 60% or the value of IC50 was more than 200 nM.).
For `CN(C)c1cc(N[C@H]2CC[C@@H](CNCc3ccc(OCc4ccc(Br)cc4)cc3)CC2)nc2ccccc12` [compound 1203], the class was 3 (Class 3 The value of percent of control at 10^−7 M was more than 60% or the value of IC50 was more than 200 nM.).
`CCOc1c(Br)cc(Br)cc1CNC[C@H]1CC[C@@H](Nc2cc(N(C)C)c3ccccc3n2)CC1` [compound 1204] was tested, and the class was 3 (Class 3 The value of percent of control at 10^−7 M was more than 60% or the value of IC50 was more than 200 nM.).
`COc1cccc(OC)c1CN[C@H]1CC[C@@H](Nc2nccc(N(C)C)n2)CC1` [compound 1205] was tested, and the class was 3 (Class 3 The value of percent of control at 10^−7 M was more than 60% or the value of IC50 was more than 200 nM.).
In the case of `CCOc1ccccc1CN[C@H]1CC[C@@H](Nc2nccc(N(C)C)n2)CC1` [compound 1206], the class is reported as 3 (Class 3 The value of percent of control at 10^−7 M was more than 60% or the value of IC50 was more than 200 nM.).
`CN(C)c1ccnc(N[C@H]2CC[C@@H](NCc3c[nH]c4ccccc34)CC2)n1` [compound 1207] was tested, and the class was 3 (Class 3 The value of percent of control at 10^−7 M was more than 60% or the value of IC50 was more than 200 nM.).
In the case of `COc1ccc(OC)c(CN[C@H]2CC[C@@H](Nc3nccc(N(C)C)n3)CC2)c1` [compound 1208], the class is reported as 3 (Class 3 The value of percent of control at 10^−7 M was more than 60% or the value of IC50 was more than 200 nM.).
With `COc1ccc(CN[C@H]2CC[C@@H](Nc3nccc(N(C)C)n3)CC2)c2ccccc12` [compound 1209] the class was 3 (Class 3 The value of percent of control at 10^−7 M was more than 60% or the value of IC50 was more than 200 nM.).
For `COc1ccc2[nH]cc(CN[C@H]3CC[C@@H](Nc4nccc(N(C)C)n4)CC3)c2c1` [compound 1210], the class was 3 (Class 3 The value of percent of control at 10^−7 M was more than 60% or the value of IC50 was more than 200 nM.).
In the case of `COc1ccc2ccccc2c1CN[C@H]1CC[C@@H](Nc2nccc(N(C)C)n2)CC1` [compound 1211], the class is reported as 3 (Class 3 The value of percent of control at 10^−7 M was more than 60% or the value of IC50 was more than 200 nM.).
For `COc1cc(Br)cc(CN[C@H]2CC[C@@H](Nc3nccc(N(C)C)n3)CC2)c1O` [compound 1212], the class was 3 (Class 3 The value of percent of control at 10^−7 M was more than 60% or the value of IC50 was more than 200 nM.).
In the case of `CN(C)c1ccnc(N[C@H]2CC[C@@H](NCc3c[nH]c4ccc(Br)cc34)CC2)n1` [compound 1213], the class is reported as 2 (Class 2: The value of percent of control at 10^−7 M was from 40% to 60% or the value of IC′50 was from 50 nM to 200 nM.).
In the case of `COc1ccc(CN[C@H]2CC[C@@H](Nc3nccc(N(C)C)n3)CC2)c(OC)c1` [compound 1214], the class is reported as 3 (Class 3 The value of percent of control at 10^−7 M was more than 60% or the value of IC50 was more than 200 nM.).
With `COc1ccc(CN[C@H]2CC[C@@H](Nc3nccc(N(C)C)n3)CC2)c(OC)c1OC` [compound 1215] the class was 3 (Class 3 The value of percent of control at 10^−7 M was more than 60% or the value of IC50 was more than 200 nM.).
With `COc1cc(CN[C@H]2CC[C@@H](Nc3nccc(N(C)C)n3)CC2)cc(OC)c1O` [compound 1216] the class was 3 (Class 3 The value of percent of control at 10^−7 M was more than 60% or the value of IC50 was more than 200 nM.).
In the case of `CCOc1cc(CN[C@H]2CC[C@@H](Nc3nccc(N(C)C)n3)CC2)ccc1OC` [compound 1217], the class is reported as 3 (Class 3 The value of percent of control at 10^−7 M was more than 60% or the value of IC50 was more than 200 nM.).
For `CN(C)c1ccnc(N[C@H]2CC[C@@H](NCc3c[nH]nc3-c3ccc(C(F)(F)F)cc3)CC2)n1` [compound 1218], the class was 3 (Class 3 The value of percent of control at 10^−7 M was more than 60% or the value of IC50 was more than 200 nM.).
With `COc1cc(CN[C@H]2CC[C@@H](Nc3nccc(N(C)C)n3)CC2)cc(OC)c1OC` [compound 1219, N4,N4-dimethyl-N2-{cis-4-[(3,4,5-trimethoxybenzyl)amino]cyclohexcyl}pyrimidine-2,4-diamine] the class was 3 (Class 3 The value of percent of control at 10^−7 M was more than 60% or the value of IC50 was more than 200 nM.).
For `COc1cc(CN[C@H]2CC[C@@H](Nc3nccc(N(C)C)n3)CC2)cc(OC)c1` [compound 1221], the class was 3 (Class 3 The value of percent of control at 10^−7 M was more than 60% or the value of IC50 was more than 200 nM.).
With `COc1cc(CN[C@H]2CC[C@@H](Nc3nccc(N(C)C)n3)CC2)cc(I)c1O` [compound 1222] the class was 3 (Class 3 The value of percent of control at 10^−7 M was more than 60% or the value of IC50 was more than 200 nM.).
For `Cc1cc(CN[C@H]2CC[C@@H](Nc3nccc(N(C)C)n3)CC2)cc(C)c1O` [compound 1223], the class was 3 (Class 3 The value of percent of control at 10^−7 M was more than 60% or the value of IC50 was more than 200 nM.).
`COc1cccc(CN[C@H]2CC[C@@H](Nc3nccc(N(C)C)n3)CC2)c1` [compound 1224] was tested, and the class was 3 (Class 3 The value of percent of control at 10^−7 M was more than 60% or the value of IC50 was more than 200 nM.).
With `CN(C)c1ccnc(N[C@H]2CC[C@@H](NCc3ccc(F)c(Br)c3)CC2)n1` [compound 1225] the class was 3 (Class 3 The value of percent of control at 10^−7 M was more than 60% or the value of IC50 was more than 200 nM.).
In the case of `Cc1ccc2occ(CN[C@H]3CC[C@@H](Nc4nccc(N(C)C)n4)CC3)c(=O)c2c1` [compound 1227, 3-{[(cis-4-{[4-(dimethylamino)pyrimidin-2-yl]amino}-cylohexyl}-amino]methyl}-6-methyl-4H-chromen-4-one], the class is reported as 3 (Class 3 The value of percent of control at 10^−7 M was more than 60% or the value of IC50 was more than 200 nM.).
